Structures can show the parent of a compound that is named as a salt. Where two headings read alike, the source gives them in different places.
Legend:
in vitro = settings: rat, gh3-tre-luc cells, AC50 (uM) modified / 1000
GH3-TRE-Luc cell line = settings: read-out: AC50 (uM) modified / 1000, viability, 1 nM T3 present, 24 h

**Q.** Which CC50 at 24 h (in vitro) does the source give for `CN(C)CCC(c1ccc(Cl)cc1)c1ccccn1` (stereo not shown) [Chlorpheniramine maleate] here?
**A.** 40.4 µM

**Q.** And the CC50 (GH3-TRE-Luc cell line; Tox21_110001=Tox21_303456)?
**A.** 41.3 µM

**Q.** Which CC50 at 24 h (in vitro) does the source give for `Oc1c(I)cc(Cl)c2cccnc12` [Clioquinol] here?
**A.** 43.1 µM

**Q.** What about the CC50 (GH3-TRE-Luc cell line; Tox21_110001=Tox21_110416) of the same compound?
**A.** 43.7 µM

**Q.** Which results are given for `CCN(CC)CCOc1ccc(C(=C(Cl)c2ccccc2)c2ccccc2)cc1` [Clomiphene]?
**A.** CC50 at 24 h (in vitro): 6.61 µM; CC50 (GH3-TRE-Luc cell line; Tox21_110001=Tox21_113110): 7.27 µM

**Q.** Which results are given for `Clc1ccccc1C(c1ccccc1)(c1ccccc1)n1ccnc1` [Clotrimazole]?
**A.** CC50 at 24 h (in vitro): 5.21 µM; CC50 (GH3-TRE-Luc cell line; Tox21_110001=Tox21_110111): 8.57 µM

**Q.** Which CC50 at 24 h (in vitro) does the source give for `N=c1ccn2c(n1)O[C@H]1[C@H](O)[C@@H](CO)O[C@H]12` [Cyclocytidine] here?
**A.** 1.45 µM

**Q.** And the CC50 (GH3-TRE-Luc cell line; Tox21_110001=Tox21_111571)?
**A.** 1.18 µM

**Q.** With `Oc1ccc(Cl)cc1Cc1cc(Cl)ccc1O` [Dichlorophen] as the compound, how does the CC50 at 24 h (in vitro) read?
**A.** 16.7 µM

**Q.** And the CC50 (GH3-TRE-Luc cell line; Tox21_110001=Tox21_111112)?
**A.** 15.4 µM

**Q.** And the CC50 (GH3-TRE-Luc cell line; Tox21_110001=Tox21_303013)?
**A.** 27.4 µM

**Q.** Which results are given for `C(=NC1CCCCC1)=NC1CCCCC1` [Dicyclohexylcarbodiimide]?
**A.** CC50 at 24 h (in vitro): > 90 µM; CC50 (GH3-TRE-Luc cell line; Tox21_110001=Tox21_303237): 49.8 µM

**Q.** What does the source list for `CC/C(=C(/CC)c1ccc(O)cc1)c1ccc(O)cc1` [Diethylstilbestrol]?
**A.** CC50 at 24 h (in vitro): 55.5 µM; CC50 (GH3-TRE-Luc cell line; Tox21_110001=Tox21_300526): 28.7 µM

**Q.** Which results are given for `CC(C)[C@@]1(NC(=O)[C@@H]2C[C@@H]3c4cccc5[nH]cc(c45)C[C@H]3N(C)C2)O[C@@]2(O)[C@@H]3CCCN3C(=O)[C@H](Cc3ccccc3)N2C1=O` [Dihydroergocristine]?
**A.** CC50 at 24 h (in vitro): 21 µM; CC50 (GH3-TRE-Luc cell line; Tox21_110001=Tox21_113115): 21.9 µM

**Q.** With `CCCCCCCC[N+](C)(C)CCCCCCCC` [Dioctyldimethylammonium chloride] as the compound, how does the CC50 at 24 h (in vitro) read?
**A.** 19.4 µM

**Q.** And the CC50 (GH3-TRE-Luc cell line; Tox21_110001=Tox21_113024)?
**A.** 20.1 µM

**Q.** What does the source list for `CCCCCCCCCCCCc1ccccc1O` [Dodecylphenol]?
**A.** CC50 at 24 h (in vitro): 11.8 µM; CC50 (GH3-TRE-Luc cell line; Tox21_110001=Tox21_303360): 15.3 µM

**Q.** With `CCCCCCCCCCCC[N+](C)(C)CCOc1ccccc1` [Domiphen bromide] as the compound, how does the CC50 at 24 h (in vitro) read?
**A.** 10.6 µM

**Q.** What about the CC50 (GH3-TRE-Luc cell line; Tox21_110001=Tox21_111054) of the same compound?
**A.** 12.4 µM

**Q.** Which results are given for `Cc1cc(O)c2c(c1)C(=O)c1cc(O)cc(O)c1C2=O` [Emodin]?
**A.** CC50 at 24 h (in vitro): 29.1 µM; CC50 (GH3-TRE-Luc cell line; Tox21_110001=Tox21_303218): 34.9 µM

**Q.** With `Cc1ccc(/C=C2/C(=O)C3(C)CCC2C3(C)C)cc1` (stereo not shown) [Enzacamene] as the compound, how does the CC50 at 24 h (in vitro) read?
**A.** > 90 µM

**Q.** What about the CC50 (GH3-TRE-Luc cell line; Tox21_110001=Tox21_112423) of the same compound?
**A.** 46.5 µM

**Q.** Which results are given for `C=C1CC[C@H](O)C/C1=C/C=C1\CCC[C@]2(C)[C@@H]([C@H](C)/C=C/[C@H](C)C(C)C)CC[C@@H]12` [Ergocalciferol]?
**A.** CC50 at 24 h (in vitro): 42.5 µM; CC50 (GH3-TRE-Luc cell line; Tox21_110001=Tox21_302752): 77.9 µM

**Q.** What does the source list for `O=C1OC2(c3ccccc31)c1cc(I)c(O)c(I)c1Oc1c2cc(I)c(O)c1I` [Erythrosin B]?
**A.** CC50 at 24 h (in vitro): 16.4 µM; CC50 (GH3-TRE-Luc cell line; Tox21_110001=Tox21_301634): 19.8 µM

**Q.** With `CC[n+]1c(-c2ccccc2)c2cc(N)ccc2c2ccc(N)cc21` [Ethidium bromide] as the compound, how does the CC50 at 24 h (in vitro) read?
**A.** 47.9 µM

**Q.** And the CC50 (GH3-TRE-Luc cell line; Tox21_110001=Tox21_111123)?
**A.** 37.9 µM

**Q.** For `CCCCCCCCCCCCCCCC[N+](C)(C)CC` [Ethylhexadecyldimethylammonium bromide], which CC50 at 24 h (in vitro) is on record?
**A.** 11.9 µM

**Q.** And the CC50 (GH3-TRE-Luc cell line; Tox21_110001=Tox21_112326)?
**A.** 6.28 µM

**Q.** With `C#C[C@]1(OC(C)=O)CC[C@H]2[C@@H]3CCC4=C[C@@H](OC(C)=O)CC[C@@H]4[C@H]3CC[C@@]21C` [Ethynodiol diacetate] as the compound, how does the CC50 at 24 h (in vitro) read?
**A.** 45 µM

**Q.** And the CC50 (GH3-TRE-Luc cell line; Tox21_110001=Tox21_112924)?
**A.** 44.6 µM

**Q.** For `CCc1cc(Cl)c(OC)c(C(=O)NC[C@@H]2CCCN2CC)c1O` [Eticlopride hydrochloride], which CC50 at 24 h (in vitro) is on record?
**A.** 19.6 µM

**Q.** And the CC50 (GH3-TRE-Luc cell line; Tox21_110001=Tox21_111229)?
**A.** 25.3 µM

**Q.** What about the CC50 (GH3-TRE-Luc cell line; Tox21_110001=Tox21_113585) of the same compound?
**A.** 33.6 µM

**Q.** Which CC50 at 24 h (in vitro) does the source give for `O=C(c1cc(O)c(O)c(O)c1)c1ccc(O)c(O)c1O` [Exifone] here?
**A.** 43.6 µM

**Q.** And the CC50 (GH3-TRE-Luc cell line; Tox21_110001=Tox21_303559)?
**A.** 62.8 µM

**Q.** With `O=C(O)C1=NN(c2ccc(S(=O)(=O)O)cc2)C(=O)C1N=Nc1ccc(S(=O)(=O)O)cc1` (stereo not shown) [FD&C Yellow 5] as the compound, how does the CC50 at 24 h (in vitro) read?
**A.** > 50 µM

**Q.** What about the CC50 (GH3-TRE-Luc cell line; Tox21_110001=Tox21_201539) of the same compound?
**A.** 43.1 µM

**Q.** What about the CC50 (GH3-TRE-Luc cell line; Tox21_110001=Tox21_300554) of the same compound?
**A.** 61.1 µM

**Q.** For `O=S(=O)(O)c1ccc(N=Nc2c(O)ccc3cc(S(=O)(=O)O)ccc23)cc1` [FD&C Yellow 6], which CC50 at 24 h (in vitro) is on record?
**A.** 38.5 µM

**Q.** What about the CC50 (GH3-TRE-Luc cell line; Tox21_110001=Tox21_300407) of the same compound?
**A.** 65.1 µM

**Q.** What does the source list for `Cc1[nH]cnc1C[C@H]1CCc2c(C)c3ccccc3n2C1=O` [Fabesetron]?
**A.** CC50 at 24 h (in vitro): 33.3 µM; CC50 (GH3-TRE-Luc cell line; Tox21_110001=Tox21_113200): 23.5 µM

**Q.** For `OC(c1ccc(Cl)cc1)(c1cncnc1)c1ccccc1Cl` (stereo not shown) [Fenarimol], which CC50 at 24 h (in vitro) is on record?
**A.** > 90 µM

**Q.** And the CC50 (GH3-TRE-Luc cell line; Tox21_110001=Tox21_300650)?
**A.** 82.8 µM

**Q.** For `CC1(C)C(C(=O)OC(C#N)c2cccc(Oc3ccccc3)c2)C1(C)C` (stereo not shown) [Fenpropathrin], which CC50 at 24 h (in vitro) is on record?
**A.** > 90 µM

**Q.** And the CC50 (GH3-TRE-Luc cell line; Tox21_110001=Tox21_300882)?
**A.** 80.7 µM

**Q.** With `Oc1ccc(Cl)cc1Sc1cc(Cl)ccc1O` [Fenticlor] as the compound, how does the CC50 at 24 h (in vitro) read?
**A.** 8.49 µM

**Q.** And the CC50 (GH3-TRE-Luc cell line; Tox21_110001=Tox21_110031)?
**A.** 11.6 µM

**Q.** With `N#Cc1nn(-c2c(Cl)cc(C(F)(F)F)cc2Cl)c(N)c1[S+]([O-])C(F)(F)F` (stereo not shown) [Fipronil] as the compound, how does the CC50 at 24 h (in vitro) read?
**A.** 49.6 µM

**Q.** What about the CC50 (GH3-TRE-Luc cell line; Tox21_110001=Tox21_111300) of the same compound?
**A.** 36.1 µM

**Q.** Which results are given for `O=C(Nc1cccc(C(F)(F)F)c1)c1cc(Br)cc(Br)c1O` [Fluorosalan]?
**A.** CC50 at 24 h (in vitro): 2.69 µM; CC50 (GH3-TRE-Luc cell line; Tox21_110001=Tox21_112749): 3.92 µM

**Q.** With `O=C1c2ccccc2C(=O)N1SC(Cl)(Cl)Cl` [Folpet] as the compound, how does the CC50 at 24 h (in vitro) read?
**A.** 4.47 µM

**Q.** What about the CC50 (GH3-TRE-Luc cell line; Tox21_110001=Tox21_301077) of the same compound?
**A.** 2.3 µM

**Q.** For `CC1(C)[C@@H](O)CC[C@]2(C)[C@H]3C(=O)C=C4[C@@H]5C[C@@](C)(C(=O)O)CC[C@]5(C)CC[C@@]4(C)[C@]3(C)CC[C@@H]12` [Glycyrrhetinic acid], which CC50 at 24 h (in vitro) is on record?
**A.** 28 µM

**Q.** What about the CC50 (GH3-TRE-Luc cell line; Tox21_110001=Tox21_110804) of the same compound?
**A.** 24.8 µM

**Q.** What about the CC50 (GH3-TRE-Luc cell line; Tox21_110001=Tox21_112726) of the same compound?
**A.** 19.8 µM

**Q.** Which results are given for `COC1=CC(=O)C[C@@H](C)[C@]12Oc1c(Cl)c(OC)cc(OC)c1C2=O` [Griseofulvin]?
**A.** CC50 at 24 h (in vitro): > 90 µM; CC50 (GH3-TRE-Luc cell line; Tox21_110001=Tox21_303005): 49.1 µM

**Q.** Which results are given for `O=[N+]([O-])c1cc(N(CCO)CCO)ccc1NCCO` [HC Blue 2]?
**A.** CC50 at 24 h (in vitro): > 90 µM; CC50 (GH3-TRE-Luc cell line; Tox21_110001=Tox21_302947): 91.6 µM

**Q.** What does the source list for `CCN(CC)C(=O)c1cc(S(=O)(=O)Cc2ccccc2)c(N2CCC(c3ccccc3)CC2)cc1N(CC)CCN(C)C` [HMR1171 trifluoroacetate (1:1)]?
**A.** CC50 at 24 h (in vitro): 4.78 µM; CC50 (GH3-TRE-Luc cell line; Tox21_110001=Tox21_113204): 3.38 µM

**Q.** What does the source list for `CCCCCCCOC(=O)c1ccc(O)cc1` [Heptylparaben]?
**A.** CC50 at 24 h (in vitro): 47.8 µM; CC50 (GH3-TRE-Luc cell line; Tox21_110001=Tox21_303458): 50.7 µM

**Q.** For `ClC1=C(Cl)C(Cl)(Cl)C(Cl)=C1Cl` [Hexachlorocyclopentadiene], which CC50 at 24 h (in vitro) is on record?
**A.** > 90 µM

**Q.** And the CC50 (GH3-TRE-Luc cell line; Tox21_110001=Tox21_302780)?
**A.** 58 µM

**Q.** What does the source list for `Oc1c(Cl)cc(Cl)c(Cl)c1Cc1c(O)c(Cl)cc(Cl)c1Cl` [Hexachlorophene]?
**A.** CC50 at 24 h (in vitro): 17.1 µM; CC50 (GH3-TRE-Luc cell line; Tox21_110001=Tox21_111099): 14.8 µM; CC50 (GH3-TRE-Luc cell line; Tox21_110001=Tox21_302741): 22.4 µM
